Here are results for four molecules from ChEMBL document CHEMBL1154213, “Composition of the fresh leaves and stems of Melissa officinalis and evaluation of skin irritation in a reconstituted human epidermis model” (J Nat Prod, 2009).

pEC50: −log10 of the molar value. Values after ≈ are worked out from the molar mass of the structure shown. Active and inactive are the calls of the source. The rule behind the calls is not given here. Some results are limits rather than exact numbers.

Data set [1] concerns Radical scavenging activity. Nature of the data set: Antioxidant activity assessed as DPPH radical scavenging activity. Type of data set: functional. For orientation: Loss of DPPH colour is used to gauge radical scavenging.
Data set [2] has as its system Staphylococcus aureus. Nature of the data set: Antimicrobial activity against Staphylococcus aureus ATCC 6538 after 48 hrs by broth dilution method. As to conditions: ATCC 6538, 48 h. Type of data set: functional.
Data set [3] relates to Staphylococcus aureus. Description: Antimicrobial activity against Staphylococcus aureus ATCC 6538 after 24 hrs by broth dilution method. As to conditions: ATCC 6538, 24 h. Type of data set: functional. In general terms: Dilution methods test growth across graded concentrations, often in twofold steps.
The test system of data set [4] is Staphylococcus epidermidis. Description: Antimicrobial activity against Staphylococcus epidermidis ATCC 12228 after 48 hrs by broth dilution method. Type of data set: functional. To be noted: ATCC 12228, 48 h.
For data set [5], the system named is Staphylococcus epidermidis. Nature of the data set: Antimicrobial activity against Staphylococcus epidermidis ATCC 12228 after 24 hrs by broth dilution method. Type of data set: functional. As to conditions: ATCC 12228, 24 h.
In data set [6] the test system is Bacillus spizizenii. Description: Antimicrobial activity against Bacillus spizizenii ATCC 6633 after 24 hrs by broth dilution method. Type of data set: functional.
The test system of data set [7] is Bacillus spizizenii. Nature of the data set: Antimicrobial activity against Bacillus spizizenii ATCC 6633 after 48 hrs by broth dilution method. Type of data set: functional. To be noted: ATCC 6633, 48 h.
Data set [8] concerns Pseudomonas aeruginosa. Description: Antimicrobial activity against Pseudomonas aeruginosa ATCC 9027 after 24 hrs by broth dilution method. Type of data set: functional. As to conditions: ATCC 9027, 24 h.
In data set [9] the test system is Pseudomonas aeruginosa. Description: Antimicrobial activity against Pseudomonas aeruginosa ATCC 9027 after 48 hrs by broth dilution method. Type of data set: functional. To be noted: ATCC 9027, 48 h.
Data set [10] deals with Escherichia coli. Description: Antimicrobial activity against Escherichia coli ATCC 8739 after 24 hrs by broth dilution method. Type of data set: functional, organism-based.
For data set [11], the system named is Escherichia coli. Nature of the data set: Antimicrobial activity against Escherichia coli ATCC 8739 after 48 hrs by broth dilution method. Type of data set: functional, organism-based.
Data set [12] has as its system Candida albicans. Nature of the data set: Antimicrobial activity against Candida albicans ATCC 10231 after 24 hrs by broth dilution method. Type of data set: functional. To be noted: ATCC 10231, 24 h.
Data set [13] relates to Candida albicans. Description: Antimicrobial activity against Candida albicans ATCC 10231 after 5 days by broth dilution method. Type of data set: functional, organism-based.
Data set [14] concerns Aspergillus niger. Nature of the data set: Antimicrobial activity against Aspergillus niger ATCC 16404 after 24 hrs by broth dilution method. Type of data set: functional. As to conditions: ATCC 16404, 24 h.
In data set [15] the test system is Aspergillus niger. Nature of the data set: Antimicrobial activity against Aspergillus niger ATCC 16404 after 5 days by broth dilution method. Type of data set: functional, organism-based.
The nature of data set [16]: Cytotoxicity against human reconstituted epidermal cells at 17.1 mM after 15 mins of topical exposure followed by 42 hrs of recovery by MTT assay. Type of data set: cell-based. To be noted: 0.25 h, 17100 µM. (In general: Tetrazolium assays rely on reduction of a dye to a coloured formazan, in cell work by metabolically active cells.)
For data set [17], the system named is Homo sapiens. Nature of the data set: Antiinflammatory activity against reconstituted human epidermis model assessed as inhibition of IL1-alpha release measured after 15 mins of topical exposure followed by 42 hrs of recovery by ELISA. Type of data set: functional. As to conditions: Skin epidermis.
The test system of data set [18] is Skin epidermis. Nature of the data set: Reduction of trans epithelial electrical resistance in human reconstituted epidermis after 15 mins of topical exposure followed by 42 hrs of recovery. Type of data set: functional.

As usually defined, the pEC50 is the EC50 on a negative log10 scale, so that one unit is a factor of ten. As usually defined, the MIC is the lowest concentration found to suppress growth. Take `O=C(/C=C/c1ccc(O)c(O)c1)O[C@H](Cc1ccc(O)c(O)c1)C(=O)O` [ROSMARINIC ACID]: the pEC50 in [1] was 5.10. Besides, the MBC turned out to be 120 µg/mL (≈ 0.333 mM) in [2], 1000 µg/mL (≈ 2.78 mM) in data set [4], 4000 µg/mL (≈ 11.1 mM) in [7] and 4000 µg/mL (≈ 11.1 mM) in [9]. In addition, the MIC in data set [3] stood at 120 µg/mL (≈ 0.333 mM); in data set [5], 120 µg/mL (≈ 0.333 mM); in data set [6], 4000 µg/mL (≈ 11.1 mM); in data set [8] it was 2000 µg/mL (≈ 5.55 mM); in data set [12], 2000 µg/mL (≈ 5.55 mM); in data set [14], 4000 µg/mL (≈ 11.1 mM). Further, in [10], the MIC result was “inactive”. In addition, the MBC entry in data set [11], in data set [13] and in data set [15] was “inactive” each time.
For `O=C(O)/C=C/c1ccc(O)c(O)c1` [CAFFEIC ACID], in [1], the pEC50 was 4.75.
For the molecule `C[C@@H]1CC[C@]2(C(=O)O[C@@H]3O[C@H](CO)[C@@H](O)[C@H](O)[C@H]3O)CC[C@]3(C)C(=CC[C@@H]4[C@@]5(C)C[C@@H](O)[C@H](O)[C@@](C)(COS(=O)(=O)O)[C@@H]5CC[C@]43C)[C@@H]2[C@]1(C)O`, the outcome in data set [1] was inactive.
Regarding `C[C@@H]1CC[C@]2(C(=O)O)CC[C@]3(C)C(=CC[C@@H]4[C@@]5(C)C[C@@H](O)[C@H](O)[C@@](C)(COS(=O)(=O)O)[C@@H]5CC[C@]43C)[C@@H]2[C@]1(C)O`, in data set [1], the result was inactive. The Activity in data set [16] was over 75%; in data set [17] it was “Non-toxic”; in data set [18], “Non-toxic”.
